The results in this text go back to patent publication US20040063710A1, “Ophthalmological preparations” (priority 2000, published 2004).

One assay relates to retinal ganglion cells. Put plainly: Inhibitory effect against retinal ganglion cell death caused by glutamate. The format is cell-based, Wister rat. The following applies: 10^-7 M, 10^-6 M, 10^-5 M MCI-154; 250 μM glutamate, 48 hours culture; versus control group. The method, then: In accordance with the method of Otori et al. (Investigative Ophthalmology & Visual Science, Vol. 39, No. 6, 1998), retinal ganglion cells were isolated from a 6 day-old Wister rat, and approximately 300 cells were plated on each cover glass having a diameter of 12 mm with poly-L-lysine and laminin coatings, that was inserted in each well of a 24-well culture plate, and then were cultured for 24 hours. The cells were divided into an untreated group, a control group, and medicament-treated group, each consisting of 2 wells. To the untreated and control groups, a basic culture medium was added, and to the medicament-treated groups, MCI-154 was added at various concentrations. After 4 hours of culture, 250 μM of glutamate was added to all of the groups except for the untreated group, followed by further culture for 48 hours. After the culture for 48 hours, cells were stained with 1 μM calcein acetoxymethyl ester, and the number of cells with neurites growing more than twice as long as the cell body diameter was counted as viable cells under a fluorescence microscope. Independent three experiments were performed in duplicate.
Medicament-treated group: 10^−7 M, 10^−6 M, and 10^−5 M MCI-154
Basic culture medium: Neurobasal (Gibco, Grand Island, N.Y.) including 1 mM glutamine, 10 μg/ml gentamycin, and 40 ng/ml […], CNTF, and b-FGF. […]

The subject of assay [1] is left atrium of guinea pig. Put plainly: Isolated left atrium of guinea pig. As to conditions: Dose 3 × 10^-5 g/ml. The method, then:
A left atrium was isolated from a male guinea pig with 200-300 g of body weight soon after striking on the back of its head. The mitral orifice was fixed to the bottom of an organ bath filled with 30 ml of Krebs-Henseleit solution maintained at 35° C. A gas mixture comprising 95% O2 and 5% CO2 was passed through the Krebs-Henseleit solution in the organ bath. Isometric tension was measured by connecting a left auricle of heart and a transducer by a yarn. A resting tension of 0.5 g was given to the atrium, which was then electrically driven with square pulses with duration of 1 msec and voltage of 1.5 times as much as threshold in the rate 2 Hz via dipolar platinum electrodes. After stabilizing the atrium for 30 minutes from its preparation, the compound dissolved in a solvent was added to the organ bath to measure its effect.

Assay [2] deals with retinal degeneration caused by transient retinal ischemia. Put plainly: Inhibitory effect against retinal degeneration induced by transient retinal ischemia. The format is in vivo, Wister male rats. As to conditions: 0.1 mg/kg into caudal vein just before and immediately after ocular hypertension treatment (130 mmHg, 50 minutes); 7 days after; versus control group. The method, then: Wister male rats (body weight of about 200 g) was used. Each animal was subjected to sufficient warming treatment by using a thermal plate under anesthesia, and the head was fixed by using a stereotaxic apparatus. In order to induce transient retinal ischemia, IOP was maintained at 130 mmHg for 50 minutes by injecting intraocular irrigating solution into the anterior chamber via the cornea using an infusion tube and 30 G injection needle which were connected to a bottle held at 174 cm above the eyes (ocular hypertension treatment) according to the method of Akaike (Folia Pharmacologica Japonica, 111, pp.97-104(1998)). The ocular hypertension treatment was performed only on the right eye, and the left eye was left untreated. Just before and immediately after the ocular hypertension treatment, a physiological saline or a dose of 0.1 mg/kg of MCI0154 was injected to the caudal vein. Seven days after the ocular hypertension treatment, the animal was sacrificed under anesthesia, and eyeballs were isolated and a light microscopic specimens of horizontal sections of retina were prepared. Under a microscope, thickness of the retina (from inner plexiform layer to outer plexiform layer) was measured using a micrometer. […] 7 days after the ocular hypertension treatment. Data represent means±SEM (standard errors), and the number of rats for each group was 10. […]

Consider `O=C1CCC(c2ccc(Nc3ccncc3)cc2)=NN1` [MCI-154, 6-[4-(4-pyridylamino)phenyl]-4,5-dihydro-3 (2H)pyridazinone], for which, in the assay with retinal ganglion cells, the “inhibition of retinal ganglion cell death induced by glutamate (viable cells relative to untreated group)” value is “significantly inhibits”. Also, the “Contraction of left atrium of guinea pig, Increase (%)” value in assay [1] is 188%. The “inhibition of retinal degeneration caused by transient retinal ischemia (retinal thickness ratio)” value in assay [2] was “significantly inhibits”.
